The results in this text go back to publication PMC9184620, “TAS1553, a small molecule subunit interaction inhibitor of ribonucleotide reductase, exhibits antitumor activity by causing DNA replication stress” (Communications Biology, 2022).

Where two headings read alike, the source gives them in different places. Ends that are not written are not given here.

Assay [1] concerns the target T1, human R1 (Homo sapiens, UniProt P23921).
T1 construct: made in house; host or cells: Escherichia coli
T1 sequence (P23921 1-792): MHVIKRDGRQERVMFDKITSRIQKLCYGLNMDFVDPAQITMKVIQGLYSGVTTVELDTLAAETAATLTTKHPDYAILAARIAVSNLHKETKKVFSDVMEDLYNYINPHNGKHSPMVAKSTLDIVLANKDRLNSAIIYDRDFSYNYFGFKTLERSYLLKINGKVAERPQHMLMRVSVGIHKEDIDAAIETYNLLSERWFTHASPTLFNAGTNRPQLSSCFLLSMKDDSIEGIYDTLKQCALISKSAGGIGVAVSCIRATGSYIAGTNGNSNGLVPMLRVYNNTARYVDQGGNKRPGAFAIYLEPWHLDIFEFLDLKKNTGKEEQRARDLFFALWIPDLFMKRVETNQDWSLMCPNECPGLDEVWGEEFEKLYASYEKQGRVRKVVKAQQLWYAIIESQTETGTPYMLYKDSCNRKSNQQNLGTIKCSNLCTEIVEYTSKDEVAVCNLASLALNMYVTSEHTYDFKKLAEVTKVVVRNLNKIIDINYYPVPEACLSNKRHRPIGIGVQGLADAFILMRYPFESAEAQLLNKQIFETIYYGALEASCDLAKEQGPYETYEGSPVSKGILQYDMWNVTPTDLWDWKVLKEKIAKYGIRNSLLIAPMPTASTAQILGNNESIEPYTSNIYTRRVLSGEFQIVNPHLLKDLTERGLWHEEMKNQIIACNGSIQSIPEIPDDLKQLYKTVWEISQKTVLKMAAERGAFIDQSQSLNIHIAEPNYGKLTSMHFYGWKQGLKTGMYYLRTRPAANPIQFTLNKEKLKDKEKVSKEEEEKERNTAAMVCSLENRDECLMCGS
Description: Fluorescence polarization binding assay (displacement of TAMRA-labeled P7 from R1). The settings on record: R1 and TAMRA-labeled P7; mean ± SD, three independent experiments; read-out: IC50, fluorescent polarization binding assay. The text has this: Fig. 1 Design and identification of the small molecule compound TAS1553 blocking the interaction between RNR subunits. a A schematic representation of the fluorescent polarization binding assay. TAMRA-labeled P7 heptapeptide was used as a probe. […] Data are presented as mean ± SD obtained from three independent experiments. c Chemical structures of compound 1 and TAS1553. d Superposition of the X-ray co-crystal structure of human RRM1 (green) with compound 1 (magenta) (PDB ID: 6L3R) to the previously determined X-ray co-crystal structure of Saccharomyces cerevisiae RNR1 (cyan) with P7 peptide (yellow) (PDB ID: 2ZLF). The residue numbers and protein surface shown here are those of hRRM1. e SPR analysis for the binding of TAS1553 to human R1 captured onto Series S Sensor Chip NTA. […] IC50 (mean ± SD) is determined from three independent experiments performed in triplicate.
TAMRA-labeled P7 peptide was obtained from Peptide Institute, Inc. to be used as a fluorescent probe in the FP binding assay. The final reaction mixture was composed of 50 mmol/L Tris-Cl (pH 8.0), 10 mmol/L DTT, 10 nmol/L TAMRA-P7, 32 ng/mL His-R1, and 1% DMSO with or without test compound. The assay was performed for 120 min at room temperature with protection from light, after which FP of each sample was measured with a PHERAstarFS. IC50 values were calculated using the SAS software package in EXSUS (CAC Croit).
On the technique in general: Fluorescence polarisation rises when a labelled molecule tumbles more slowly, as on binding a larger partner.

In assay [2] the test system is HCC38 xenograft. In words: Antitumor activity in mice bearing HCC38 xenografts. Format: in vivo, mouse. How it is done:
Next, we evaluated the antitumor activity of a high-dose administration of TAS1553 and cytarabine in rats bearing MV-4-11 xenografts. […] The rats were treated with cytarabine for 5 days at 16 and 32 mg/kg. […] In addition to the hematologic tumor, we evaluated the antitumor activity of TAS1553 in mice implanted with HCC38 cell line as a solid tumor model. […] Finally, TAS1553 was evaluated for its survival benefit in a mouse model. To achieve this, we established mice bone marrow cells harboring the human MLL-AF9 fusion gene, which is known as a driver gene for AML in humans as well as mice[48]. Mice were transplanted with the cells through the tail vein and the treatment with TAS1553 was started 11 days post-implantation.
For the subcutaneous implantation model of MV-4-11, F344/NJcl-rnu/rnu rats were irradiated with X-ray (4 Gy) to improve the efficiency of xenograft implantation. Two days after X-ray irradiation, MV-4-11 cells suspended in PBS with 50 vol% Matrigel were inoculated into the rats (2 × 10^7 cells/animal). In the mice subcutaneous implantation model, HCC38 cells suspended same as above were inoculated into male BALB/cAJcl-nu/nu mice (1 × 10^7 cells /body). The animals were randomized and administered with the compound for 14 days. Antitumor activity and body weight change were evaluated as previously reported. Dunnett test using the SAS software package in EXSUS (CAC Croit) was used to compare the tumor volume (P < 0.05).

Assay [3] concerns the target T2, RNR (R1 and R2 recombinant proteins) (Homo sapiens, UniProt P23921).
T2 construct: made in house; host or cells: Escherichia coli
T2 sequence (P23921 1-792): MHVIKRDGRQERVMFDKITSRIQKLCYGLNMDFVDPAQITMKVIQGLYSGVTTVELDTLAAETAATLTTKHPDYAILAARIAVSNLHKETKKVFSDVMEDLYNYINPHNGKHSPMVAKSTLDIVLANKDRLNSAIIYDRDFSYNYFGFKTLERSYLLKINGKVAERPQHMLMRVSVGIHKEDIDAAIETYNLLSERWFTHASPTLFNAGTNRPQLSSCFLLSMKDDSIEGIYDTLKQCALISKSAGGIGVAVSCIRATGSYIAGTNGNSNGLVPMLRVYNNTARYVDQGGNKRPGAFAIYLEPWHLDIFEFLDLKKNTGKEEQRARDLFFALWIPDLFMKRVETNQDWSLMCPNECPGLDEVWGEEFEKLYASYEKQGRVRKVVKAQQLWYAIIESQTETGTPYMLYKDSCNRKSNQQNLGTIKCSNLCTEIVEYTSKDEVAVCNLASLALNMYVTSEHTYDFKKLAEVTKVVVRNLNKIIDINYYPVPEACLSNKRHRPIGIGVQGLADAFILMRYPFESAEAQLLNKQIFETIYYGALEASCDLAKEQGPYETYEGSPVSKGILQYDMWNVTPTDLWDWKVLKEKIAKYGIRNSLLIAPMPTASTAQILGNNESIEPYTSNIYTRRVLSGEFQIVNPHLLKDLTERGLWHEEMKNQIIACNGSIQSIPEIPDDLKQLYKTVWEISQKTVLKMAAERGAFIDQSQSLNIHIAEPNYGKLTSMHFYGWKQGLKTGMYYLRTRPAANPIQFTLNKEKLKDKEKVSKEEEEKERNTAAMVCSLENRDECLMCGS
In words: RNR assay (formation of dCDP from CDP). The assay is classed as biochemical. Here is the method:
The binding affinity of TAS1553 to the R1 subunit was investigated using surface plasmon resonance (SPR) binding analysis. […] Next, we evaluated the inhibitory effect of TAS1553 against the enzymatic activity of RNR, consisting of R1 and R2 recombinant proteins. RNR activity was determined by its ability to reduce cytidine diphosphate (CDP) to deoxycytidine diphosphate (dCDP), based on a previous report. […] In addition to the inhibitory effect on RNR, TAS1553 was evaluated in a Eurofins LeadProfilingScreen panel assay including 68 proteins, such as ion channels, transporters, nuclear receptors, and G protein-coupled receptors, to examine its potential adverse activity.
The inhibition of RNR activity by the test compound was evaluated by measuring the formation of dCDP from CDP, as reported previously. The assay was performed for 30 min at 37 °C in a reaction mixture composed of 50 mmol/L HEPES, 4 mmol/L magnesium acetate, 100 mmol/L KCl, 6 mmol/L DTT, 2 mmol/L ATP, 0.24 mmol/L NADPH, 10.0 µmol/L CDP, 0.1 mg/mL BSA, 8.0 µg/mL His-R1, 2.4 µg/mL His-R2, and 1% DMSO with or without test compound. The reaction was discontinued by heat treatment at 95 °C for 5 min. The amount of dCDP after the reaction was quantified by a prominence HPLC system and LabSolutions software (SHIMADZU CORPORATION). Separations were performed at 265 nm in a Shim-pack XR-ODS column of particle size 2.2 μm (100 × 3.0 mm, SHIMADZU GLC Ltd.). Overall, 5 µL of each sample was injected, and chromatography was performed at 40 °C. Mobile A was composed of 10 mmol/L potassium dihydrogenphosphate, 10 mmol/L tetrabutylammonium hydroxide, 0.25% methanol and 8 mmol/L HCl. Mobile B was composed of 50 mmol/L potassium dihydrogenphosphate, 5.6 mmol/L tetrabutylammonium hydroxide, and 30% methanol. The gradient was as follows: 52–60% B for 9 min, 60–99% B for 1 min, 99% B for 5 min, 99–52% B for 1 min, and 52% B for 5 min. The flow rate was 0.5 mL/min. The experiment was performed in triplicates. IC50 values were calculated using the SAS software package.

The mark [4] stands for this setting: CDP to dCDP, mean ± SD, read-out: Enzyme IC50.

The term IC50 denotes the point on the concentration scale where inhibition reaches its midpoint. As for `CN(C)c1cccc2c(S(=O)(=O)N[C@@H](Cc3ccccc3)C(=O)O)cccc12` [Dansyl-L-phenyl alanine, reference compound], the IC50 in assay [1] worked out at 3340 ± 540 µM. Consider `CCCCCOC(=O)Nc1nc(=O)n([C@@H]2O[C@H](C)[C@@H](O)[C@H]2O)cc1F` [capecitabine], for which the T/C ratio in assay [2] (539 mg/kg oral once daily for 14 days (maximum tolerated dose)) amounted to 67.9%. Take `CC(=O)O[C@H]1C(=O)[C@@]2(C)[C@H]([C@H](OC(=O)c3ccccc3)[C@]3(O)C[C@H](OC(=O)[C@H](O)[C@@H](NC(=O)c4ccccc4)c4ccccc4)C(C)=C1C3(C)C)[C@]1(OC(C)=O)CO[C@@H]1C[C@@H]2O` [paclitaxel]: the T/C ratio in assay [2] (20 mg/kg intravenously once a week) came out at 63.6%. Turning to Ac-FTLDADF [P7, N-AcFTLDADF], in assay [3], the IC50 was determined as 14.5 ± 1 µM. With `O=C(Nc1nc(-c2ccc(O)c(O)c2)c(-c2ccccc2)s1)c1ccc(O)c(O)c1` [COH29], the IC50 in assay [3] (setting [4]) was 6.76 ± 0.71 µM. Same read-out and setting: as for `NC(=S)N/N=C/c1ncccc1N` [3-AP, Triapine], the figure is 0.364 ± 0.106 µM.
